Test results: PubChem BioAssay (NCI)
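Test compounds were applied to cells in 96-well plates for 48 hours at 5 doses. The concentration for 50% growth inhibition is given as GI50. Definition used: TGI = concentration required for complete inhibition of growth.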

Legend:
Test in all cases: NCI anticancer screen, dose series, 48 h
[1] = test system: MCF7 breast
[2] = test system: DLD-1 colon
[3] = test system: DMS 114 small cell lung
[4] = test system: KM20L2 colon
[5] = test system: LXFL 529 NSCLC
[6] = test system: M19-MEL melanoma
[7] = test system: HOP-18 NSCLC
[8] = test system: MDA-N
[9] = test system: RXF-631 renal

SMILES	GI50 [1] [µM]	TGI [1] [µM]	TGI [2] [µM]	TGI [5] [µM]	further results
COc1ccc(S(=O)(=O)N2CCN(C(=O)c3ccc(-c4ccccc4)cc3)CC2C(=O)NO)cc1 (configuration not stated)	0.714	3.2	–	–	–
O=C(NOC[C@H](O)CO)c1ccc(F)c(F)c1Nc1ccc(I)cc1F	> 76.5	> 100	–	–	–
OCc1ccc(N2CCc3cccc(F)c3C2)cc1Cl	–	53.4	–	–	–
CCC(=O)c1c(NOC2OCC(OC(C)=O)C(OC(C)=O)C2OC(C)=O)nc(OC)n(C)c1=O (configuration not stated)	–	–	> 100	> 100	TGI [3]: > 100 µM; TGI [4]: > 100 µM; TGI [6]: > 100 µM
O=S(=O)(NC1=NCCN1C(=S)SN1CCn2c1nsc2=S)c1cccc2ccccc12	7.27	58	–	–	–
CCOC(=O)C(Cc1c[nH]c2c(N(CCO)CCO)cccc12)(NC(C)=O)C(=O)OCC	141	305	–	–	–
Cc1nn[n-]n1.N.N.N.N.N.[Cl-].[Co+3]	–	–	> 100	> 100	GI50 [2]: > 100 µM; GI50 [7]: > 100 µM; TGI [7]: > 100 µM; GI50 [4]: > 100 µM; TGI [4]: > 100 µM; GI50 [5]: > 100 µM
COc1ccc(C2OC(=O)c3ccc4ccccc4c32)c(C)c1 (configuration not stated)	–	29.9	–	–	TGI [8]: 4.28 µM
CCOC(=O)c1cc2cc3c4c(c2oc1=O)CCCN4CCC3	–	56.3	–	–	TGI [8]: > 100 µM
C#Cc1cccc(N2C(=O)c3c(c(-c4ccccc4)c(-c4ccc(Cc5ccc(-c6c(-c7ccccc7)c7c(c(-c8ccccc8)c6-c6ccccc6)C(=O)N(c6cccc(C#C)c6)C7=O)cc5)cc4)c(-c4ccccc4)c3-c3ccccc3)C2=O)c1	–	–	> 100	> 100	TGI [3]: > 100 µM; TGI [4]: > 100 µM; TGI [6]: 52 µM
O=C1CC2C(=O)c3ccccc3CC2c2ccccc21 (configuration not stated)	–	> 100	–	–	TGI [8]: > 100 µM
COc1cc2ncn(-c3cc(OCc4ccccc4C(F)(F)F)c(C(=O)N(C)C)s3)c2cc1OC	> 25	> 25	–	–	–
O=C(O)c1ccc(CI)cc1	–	31.1	–	–	TGI [8]: 34.4 µM
Cn1c(C(=O)c2ccncc2)cc2ccccc21	> 100	> 100	–	–	–
O=[N+]([O-])c1cc(Cl)c2[nH]c3c(Cl)cc([N+](=O)[O-])cc3c2c1	0.284	> 100	–	–	–
Nc1nonc1-c1nc2cnccc2n1C1CC1	6.05	> 17.3	–	–	–
COc1ccc(-c2ccncc2)cc1C(N)=O	> 25	> 25	–	–	–
O=C(O)c1ccc(NCn2nc(-c3ccccc3O)oc2=S)cc1	49.1	> 100	–	–	–
COc1ccc(N=NC(C(=O)c2ccccc2)C(=O)c2ccccc2)cc1	–	–	96.6	> 100	TGI [3]: 54.6 µM; TGI [4]: 64 µM; TGI [9]: > 100 µM
O=c1/c(=C/c2ccccc2[N+](=O)[O-])sc2nc3ccccc3n12	–	–	37.3	> 46.4	TGI [3]: 36.8 µM; TGI [7]: > 46.4 µM; TGI [4]: > 100 µM; TGI [6]: > 46.4 µM; TGI [9]: > 46.4 µM

SMILES	GI50 [1] [µM]	TGI [1] [µM]	TGI [2] [µM]	TGI [5] [µM]	further results
O=C(CCC(=O)Nc1ccc(Cl)c(Cl)c1)CC(=O)c1ccc(Br)cc1	–	–	> 100	> 100	TGI [3]: > 100 µM; TGI [7]: > 100 µM; TGI [4]: > 100 µM; TGI [6]: > 100 µM; TGI [9]: > 100 µM
CCc1ccc(NC(=O)NC(=O)c2ccccc2[N+](=O)[O-])cc1Oc1ncc(Cl)cn1	–	> 100	> 100	> 100	TGI [3]: > 100 µM; TGI [7]: > 100 µM; TGI [4]: 0.0481 µM; TGI [6]: > 100 µM
NS(=O)(=O)c1ccc(-n2nc3c(c2-c2ccc(Cl)cc2)Cc2ccccc2-3)cc1	22.9	54.8	–	–	–
COc1cc2nc(SCc3cc(OC)c(OC)c(OC)c3)n(Cc3ccccc3)c(=O)c2cc1OC	0.742	> 100	–	–	–
[C](#Cc1ccccc1)[Hg][C]#Cc1ccccc1	10.4	56.9	–	–	–
COc1ccc2cc(/C=C/C(=O)c3ccc(Cl)cc3Cl)ccc2c1	4.83	43.4	–	–	–
O=C(/C=C/C12c3ccccc3C(c3ccccc31)C1C(=O)NC(=O)C12)c1ccc(Cl)cc1Cl (configuration not stated)	1.72	3.79	–	–	–
COc1ccc(NC(=O)/C(=C/c2ccccc2)C(C)=O)cc1	–	–	28.7	24.9	TGI [3]: 30.7 µM; TGI [7]: 28.2 µM; TGI [4]: 29.2 µM; TGI [6]: 29.9 µM; TGI [9]: 31.2 µM
Cc1[nH]nc(C(F)(F)F)c1N=NN(C)C	–	14.6	–	–	TGI [8]: > 100 µM
COC(=O)C1C(O)CCC2CN3CCc4c([nH]c5ccccc45)C3CC21 (configuration not stated)	–	> 100	–	–	TGI [8]: > 100 µM
COc1cc(F)c(F)c(Nc2ccc(I)cc2F)c1NS(=O)(=O)C1(C[C@H](O)CO)CC1	> 5.31	> 10	–	–	–
CCOC(=O)C1=C(Nc2ccc(Cl)cc2Cl)OCC1=O	–	–	> 100	> 100	TGI [4]: > 100 µM; TGI [6]: > 100 µM; TGI [9]: > 100 µM
CC1=C[C@H]2c3c([nH]c4ccccc34)C(c3c[nH]c4ccccc34)[C@H]2CC1 (some centres not stated)	–	–	19.1	15.5	TGI [3]: 20.5 µM; TGI [7]: 24.1 µM; TGI [6]: 22.9 µM; TGI [9]: 14.1 µM
COc1ccc(/C=C/C(=O)/C=C/c2cc3ccccc3[nH]c2=O)cc1	2.11	11.1	–	–	–
CC1=CC(=O)CC2(C)CC[C@@H]3C[C@]12OC3(C)C (some centres not stated)	–	–	> 100	> 100	TGI [3]: > 100 µM; TGI [7]: > 100 µM; TGI [4]: > 100 µM; TGI [6]: > 100 µM
CC(=O)Oc1ccc(C23c4ccccc4C2(OC(C)=O)c2cc(OC(C)=O)ccc23)cc1 (configuration not stated)	16.6	> 100	–	–	–
COC(=O)c1cc2c3ccccc3n3c(=O)c4cc5ccc(N(S(=O)(=O)c6ccc(C)cc6)S(=O)(=O)c6ccc(C)cc6)cc5nc4c(n1)c23	> 100	> 100	–	–	–
CC1/C=C/[C@@]2(C)CCC(C(C)(C)O)C2C(O)C[C@](C)(O)/C=C/C1 (some centres not stated)	–	–	> 100	> 100	TGI [3]: > 100 µM; TGI [7]: > 100 µM; TGI [4]: > 100 µM
COc1cc(C2SCCCCCCCCCCSC(c3ccc(O)c(OC)c3)SCCCCCCCCCCS2)ccc1O (configuration not stated)	–	> 100	–	–	TGI [8]: > 100 µM
CCC1CC2C(=O)N(c3ccccc3)C(=O)C2c2[nH]c3ccccc3c21 (configuration not stated)	–	–	> 100	70.4	TGI [3]: 35.7 µM; TGI [7]: 45.8 µM; TGI [6]: 79.9 µM; TGI [9]: 29.4 µM
